Test results reported in ChEMBL document CHEMBL5505964, “HDAC/NAMPT dual inhibitors overcome initial drug-resistance in p53-null leukemia cells” (Eur J Med Chem, 2024).

Experiments:
[1] = Plasma clearance in CD-1 male mouse at 5 mg/kg, iv measured for 24 hrs by LC-MS/MS analysis; format: ADME, organism-based; settings: CD-1, mouse
[2] = biological target: Histone deacetylase 4 (Homo sapiens, UniProt P56524); test: Inhibition of C-terminal His-tagged/N-terminal GST-tagged human HDAC4 (627 to 1084 residues) expressed in baculovirus-infected Sf9 cells using Boc-Lys-(trifluoroacetyl)-AMC as substrate preincubated with enzyme for 1 hr followed by substrate addition and measured after 2 hrs by fluorescence analysis
Sequence of Histone deacetylase 4 (P56524 whole entry, the tested form may be a part): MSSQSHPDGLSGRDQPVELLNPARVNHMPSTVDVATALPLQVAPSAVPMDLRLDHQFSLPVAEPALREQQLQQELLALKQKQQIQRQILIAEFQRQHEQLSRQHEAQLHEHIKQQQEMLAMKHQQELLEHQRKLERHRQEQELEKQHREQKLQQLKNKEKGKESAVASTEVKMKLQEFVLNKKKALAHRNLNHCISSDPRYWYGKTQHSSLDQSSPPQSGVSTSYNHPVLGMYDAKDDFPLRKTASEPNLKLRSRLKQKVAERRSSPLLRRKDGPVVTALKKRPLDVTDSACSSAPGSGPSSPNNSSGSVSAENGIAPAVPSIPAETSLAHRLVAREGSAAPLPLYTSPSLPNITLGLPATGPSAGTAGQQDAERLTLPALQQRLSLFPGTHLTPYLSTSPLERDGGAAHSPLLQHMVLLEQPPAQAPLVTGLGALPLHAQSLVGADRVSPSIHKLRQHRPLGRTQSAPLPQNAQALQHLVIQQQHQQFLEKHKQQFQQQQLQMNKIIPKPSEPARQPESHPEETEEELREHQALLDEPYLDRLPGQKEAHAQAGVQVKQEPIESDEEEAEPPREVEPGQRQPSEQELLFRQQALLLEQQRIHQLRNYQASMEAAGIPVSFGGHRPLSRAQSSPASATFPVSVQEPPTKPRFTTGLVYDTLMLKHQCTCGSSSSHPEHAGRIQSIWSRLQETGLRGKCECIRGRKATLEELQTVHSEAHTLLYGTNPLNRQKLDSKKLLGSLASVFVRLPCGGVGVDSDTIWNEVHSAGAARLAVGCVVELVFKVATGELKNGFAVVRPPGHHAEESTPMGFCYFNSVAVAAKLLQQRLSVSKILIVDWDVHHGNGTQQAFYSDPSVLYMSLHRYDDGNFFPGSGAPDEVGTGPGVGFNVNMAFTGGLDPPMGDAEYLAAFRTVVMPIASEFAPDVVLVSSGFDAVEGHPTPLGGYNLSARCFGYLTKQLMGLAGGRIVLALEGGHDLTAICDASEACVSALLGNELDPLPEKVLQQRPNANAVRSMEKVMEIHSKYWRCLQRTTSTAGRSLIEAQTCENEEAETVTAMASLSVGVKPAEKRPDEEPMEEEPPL

[3] = biological target: Histone deacetylase 5 (Homo sapiens, UniProt Q9UQL6); test: Inhibition of C-terminal His-tagged human HDAC5 catalytic domain (656 to 1122 residues) expressed in baculovirus-infected Sf9 cells using Boc-Lys-(trifluoroacetyl)-AMC as substrate preincubated with enzyme for 1 hr followed by substrate addition and measured after 2 hrs by fluorescence analysis
Sequence of Histone deacetylase 5 (Q9UQL6 whole entry, the tested form may be a part): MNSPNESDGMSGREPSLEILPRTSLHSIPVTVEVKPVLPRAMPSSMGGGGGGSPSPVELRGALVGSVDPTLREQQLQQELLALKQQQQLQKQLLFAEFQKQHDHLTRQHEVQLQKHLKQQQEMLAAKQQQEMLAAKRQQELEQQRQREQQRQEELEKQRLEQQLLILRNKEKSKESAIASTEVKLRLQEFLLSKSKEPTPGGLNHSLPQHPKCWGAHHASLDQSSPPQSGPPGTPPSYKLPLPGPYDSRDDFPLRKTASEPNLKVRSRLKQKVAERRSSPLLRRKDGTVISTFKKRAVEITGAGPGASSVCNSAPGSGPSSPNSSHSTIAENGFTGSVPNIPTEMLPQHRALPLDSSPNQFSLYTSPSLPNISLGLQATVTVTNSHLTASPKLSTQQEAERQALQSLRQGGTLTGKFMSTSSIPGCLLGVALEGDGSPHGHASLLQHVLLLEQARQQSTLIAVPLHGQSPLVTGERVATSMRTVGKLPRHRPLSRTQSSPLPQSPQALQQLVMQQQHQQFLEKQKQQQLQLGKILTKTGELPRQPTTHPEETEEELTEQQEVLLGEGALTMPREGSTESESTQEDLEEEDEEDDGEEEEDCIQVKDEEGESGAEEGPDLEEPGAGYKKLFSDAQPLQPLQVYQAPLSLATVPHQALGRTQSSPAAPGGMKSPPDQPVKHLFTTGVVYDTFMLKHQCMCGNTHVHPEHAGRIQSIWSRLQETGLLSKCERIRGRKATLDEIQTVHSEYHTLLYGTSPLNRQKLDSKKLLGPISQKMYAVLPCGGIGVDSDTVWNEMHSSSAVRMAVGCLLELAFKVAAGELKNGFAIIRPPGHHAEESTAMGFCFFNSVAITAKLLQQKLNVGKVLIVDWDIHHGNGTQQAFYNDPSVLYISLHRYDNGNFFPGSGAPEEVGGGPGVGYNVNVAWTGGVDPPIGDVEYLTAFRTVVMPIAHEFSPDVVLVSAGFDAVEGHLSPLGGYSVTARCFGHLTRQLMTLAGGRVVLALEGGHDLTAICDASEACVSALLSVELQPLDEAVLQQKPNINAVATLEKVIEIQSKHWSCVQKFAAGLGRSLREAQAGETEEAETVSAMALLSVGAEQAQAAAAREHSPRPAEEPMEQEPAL

[4] = Half life in CD-1 male mouse at 5 mg/kg, iv measured for 24 hrs by LC-MS/MS analysis; format: ADME, organism-based; settings: CD-1, mouse, in vivo
[5] = Cmax in CD-1 male mouse at 5 mg/kg, iv measured for 24 hrs by LC-MS/MS analysis; format: ADME, organism-based; settings: CD-1, mouse, in vivo
[6] = biological target: Histone deacetylase 9 (Homo sapiens, UniProt Q9UKV0); test: (§1) Inhibition of C-terminal His-tagged human recombinant HDAC9 (604 to 1066 residues) expressed in baculovirus-infected Sf9 cells using Boc-Lys-(trifluoroacetyl)-AMC as substrate preincubated with enzyme for 1 hr followed by substrate addition and measured after 2 hrs by fluorescence analysis
Sequence of Histone deacetylase 9 (Q9UKV0 whole entry, the tested form may be a part): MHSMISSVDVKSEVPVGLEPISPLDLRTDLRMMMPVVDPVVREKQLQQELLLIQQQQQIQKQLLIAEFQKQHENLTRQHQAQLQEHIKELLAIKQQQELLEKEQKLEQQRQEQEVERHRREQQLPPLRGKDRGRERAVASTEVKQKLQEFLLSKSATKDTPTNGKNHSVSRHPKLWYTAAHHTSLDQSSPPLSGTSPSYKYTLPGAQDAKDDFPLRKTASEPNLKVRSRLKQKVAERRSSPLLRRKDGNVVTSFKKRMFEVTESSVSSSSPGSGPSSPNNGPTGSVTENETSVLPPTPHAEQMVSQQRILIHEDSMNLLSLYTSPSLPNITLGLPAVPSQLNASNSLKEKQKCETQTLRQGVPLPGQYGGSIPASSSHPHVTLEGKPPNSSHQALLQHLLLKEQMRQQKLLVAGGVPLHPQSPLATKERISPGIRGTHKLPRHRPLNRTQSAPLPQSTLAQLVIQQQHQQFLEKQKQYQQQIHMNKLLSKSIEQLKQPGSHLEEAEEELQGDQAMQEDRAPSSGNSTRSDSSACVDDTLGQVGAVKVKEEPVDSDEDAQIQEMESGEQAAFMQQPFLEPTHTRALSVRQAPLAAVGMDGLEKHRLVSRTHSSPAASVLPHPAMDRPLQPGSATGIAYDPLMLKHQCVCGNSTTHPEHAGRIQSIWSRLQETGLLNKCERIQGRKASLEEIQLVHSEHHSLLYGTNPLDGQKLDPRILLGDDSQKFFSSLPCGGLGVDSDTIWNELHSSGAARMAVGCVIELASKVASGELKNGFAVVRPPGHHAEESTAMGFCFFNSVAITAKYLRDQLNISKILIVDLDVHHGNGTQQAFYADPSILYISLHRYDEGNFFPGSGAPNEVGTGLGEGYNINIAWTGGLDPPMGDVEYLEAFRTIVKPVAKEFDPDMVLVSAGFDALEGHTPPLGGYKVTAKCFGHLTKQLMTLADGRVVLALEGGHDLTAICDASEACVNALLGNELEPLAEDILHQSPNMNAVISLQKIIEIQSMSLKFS

[7] = biological target: Histone deacetylase 3/Nuclear receptor corepressor 2 (HDAC3/NCoR2) (Homo sapiens, UniProt O15379); test: as §1, with “HDAC3 (1” for “recombinant HDAC9 (604”, “428 residues)/N-terminal GST tagged human NCOR2 (395 to 489” for “1066”, “Boc-Lys-(acetyl)-AMC” for “Boc-Lys-(trifluoroacetyl)-AMC”
[8] = biological target: T1, Protein deacetylase HDAC6 (Homo sapiens, UniProt Q9UBN7); test: Inhibition of N-terminal GST-tagged human full length recombinant HDAC6 (1 to 1215 residues) expressed in baculovirus-infected Sf9 cells using Boc-Lys-(acetyl)-AMC as substrate preincubated with enzyme for 1 hr followed by substrate addition and measured after 2 hrs by fluorescence analysis
T1 sequence (Q9UBN7 whole entry): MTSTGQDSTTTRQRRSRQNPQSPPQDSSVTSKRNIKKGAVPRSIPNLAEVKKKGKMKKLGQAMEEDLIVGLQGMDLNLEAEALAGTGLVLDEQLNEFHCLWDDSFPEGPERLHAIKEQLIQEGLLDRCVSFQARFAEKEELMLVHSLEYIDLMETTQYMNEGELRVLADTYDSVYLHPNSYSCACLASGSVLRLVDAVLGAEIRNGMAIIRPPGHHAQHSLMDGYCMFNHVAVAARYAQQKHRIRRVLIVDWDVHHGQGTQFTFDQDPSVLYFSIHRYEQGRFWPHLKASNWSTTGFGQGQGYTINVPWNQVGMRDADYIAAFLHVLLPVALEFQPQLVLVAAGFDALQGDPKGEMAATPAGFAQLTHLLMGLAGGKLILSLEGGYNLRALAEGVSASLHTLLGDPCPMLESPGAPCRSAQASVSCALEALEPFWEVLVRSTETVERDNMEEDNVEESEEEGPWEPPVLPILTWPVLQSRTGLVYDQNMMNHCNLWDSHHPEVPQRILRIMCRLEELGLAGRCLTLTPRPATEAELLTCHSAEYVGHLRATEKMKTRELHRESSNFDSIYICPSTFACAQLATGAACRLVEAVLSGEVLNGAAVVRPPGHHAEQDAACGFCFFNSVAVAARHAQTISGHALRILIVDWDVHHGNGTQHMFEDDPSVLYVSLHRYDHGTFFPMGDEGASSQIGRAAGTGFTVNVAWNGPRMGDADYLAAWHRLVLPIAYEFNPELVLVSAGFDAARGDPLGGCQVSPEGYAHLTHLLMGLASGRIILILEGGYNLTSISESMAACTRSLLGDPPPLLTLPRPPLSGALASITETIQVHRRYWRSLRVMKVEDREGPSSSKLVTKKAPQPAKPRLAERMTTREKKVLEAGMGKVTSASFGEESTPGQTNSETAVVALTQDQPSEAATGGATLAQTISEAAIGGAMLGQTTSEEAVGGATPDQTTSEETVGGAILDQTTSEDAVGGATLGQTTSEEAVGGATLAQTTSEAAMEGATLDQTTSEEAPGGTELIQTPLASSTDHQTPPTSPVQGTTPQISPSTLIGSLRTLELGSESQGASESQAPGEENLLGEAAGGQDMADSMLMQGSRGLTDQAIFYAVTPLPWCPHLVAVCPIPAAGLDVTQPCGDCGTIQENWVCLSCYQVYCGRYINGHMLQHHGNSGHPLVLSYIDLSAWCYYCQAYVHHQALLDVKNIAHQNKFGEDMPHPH

[9] = AUC (0 to infinity) in CD-1 male mouse at 5 mg/kg, iv by LC-MS/MS analysis; format: ADME, organism-based; settings: CD-1, mouse, in vivo
[10] = biological target: Nicotinamide phosphoribosyltransferase (Homo sapiens, UniProt P43490); test: Inhibition of N-terminal GST-tagged human recombinant NAMPT (2 to 491 residues) expressed in Escherichia coli expression system incubated for 30 mins by fluorescence based analysis
Sequence of Nicotinamide phosphoribosyltransferase (P43490 whole entry, the tested form may be a part): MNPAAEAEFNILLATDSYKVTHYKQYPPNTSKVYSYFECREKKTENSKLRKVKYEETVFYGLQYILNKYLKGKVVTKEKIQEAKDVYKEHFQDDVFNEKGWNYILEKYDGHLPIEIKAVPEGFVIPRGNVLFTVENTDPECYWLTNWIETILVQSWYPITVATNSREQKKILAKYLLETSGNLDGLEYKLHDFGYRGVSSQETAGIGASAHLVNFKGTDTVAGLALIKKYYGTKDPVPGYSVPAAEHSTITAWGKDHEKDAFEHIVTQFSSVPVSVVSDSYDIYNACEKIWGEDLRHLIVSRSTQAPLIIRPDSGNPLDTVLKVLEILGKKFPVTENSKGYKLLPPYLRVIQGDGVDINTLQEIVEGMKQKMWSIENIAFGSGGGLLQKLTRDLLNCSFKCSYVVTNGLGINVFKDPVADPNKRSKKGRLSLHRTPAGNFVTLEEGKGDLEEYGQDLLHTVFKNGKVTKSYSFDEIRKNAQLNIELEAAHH

Row | SMILES | clearance [1] | IC50 [2] | IC50 [3] | half-life [4] | Cmax [5] | IC50 [6] | IC50 [7] | IC50 [8] | AUC(0-inf) [9] | IC50 [10]
1 | CCCNNC(=O)c1ccc(CNC(=O)c2cc3cnccc3[nH]2)cc1 | 25.1 mL/min/kg | > 10 µM | > 10 µM | 9.19 h | 11700 ng/mL | > 10 µM | 0.00072 µM | > 10 µM | 3360 ng·h/mL | –
2 | CCCNNC(=O)c1ccc(CNC(=O)/C=C/c2cccnc2)cc1 | – | > 10 µM | > 10 µM | – | – | > 10 µM | – | > 10 µM | – | 1.66 µM
